From patent US20240270821A1, “GIP/GLP1/GCG TRI-RECEPTOR AGONISTS AND USES THEREOF” (priority 2023, published 2024)
Like-named read-outs stand apart in the source and are kept apart here. Starred links: 1 amine or outer side, 2 acyl side, 3 side chain; linkers in the order of their positions; H or OH if unused. Non-standard residues stand in square brackets, D forms with d. Residues, ends and D or L forms follow the SMILES beside them. Groups on a side chain read outwards from the residue. No end group written: not given here. *: point of attachment. C18 diacid = O=C(O)CCCCCCCCCCCCCCCCC(=O)*; αMePhe(2-F) = C[C@](N)(Cc1ccccc1F)C(=O)O; γGlu = O=C(O)[C@H](CCC(=O)[*:2])N[*:1]; αMe4Pal = C[C@](N)(Cc1ccncc1)C(=O)O; αMeY = C[C@](N)(Cc1ccc(O)cc1)C(=O)O; 4Pal = N[C@@H](Cc1ccncc1)C(=O)O; αMeL = CC(C)C[C@](C)(N)C(=O)O; αMeS = C[C@](N)(CO)C(=O)O; Orn = NCCC[C@H](N)C(=O)O; AEEA = NCCOCCOCC(=O)O; Aib = CC(C)(N)C(=O)O

Columns and labels:
Type in all cases: cell-based
[1] = target: hGcgR (Homo sapiens, UniProt P47871); experiment: Functional cAMP activation in the presence of 0.1% casein (no HSA); settings: read-out: Relative cAMP EC50, hGcgR;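 note: intracellular cAMP rise after 30 min at 37 °C, read by HTRF against a cAMP standard curve, scaled from buffer only (0%) to maximal control ligand response (100%)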
[2] = target: human GcgR (Homo sapiens, UniProt P47871); experiment: Functional cAMP activity in the presence of 1% HSA; settings: read-out: cAMP Rel EC50, hGcgR
[3] = target: T1, hGIPR (Homo sapiens, UniProt P48546); experiment: Functional cAMP activation in the presence of 0.1% casein (no HSA); settings: read-out: Relative cAMP EC50, hGIPR;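 note: intracellular cAMP rise after 30 min at 37 °C read by HTRF against a standard curve, scaled between buffer alone (0%) and top control ligand concentration (100%), four-parameter fit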
T1 sequence (P48546 22-466): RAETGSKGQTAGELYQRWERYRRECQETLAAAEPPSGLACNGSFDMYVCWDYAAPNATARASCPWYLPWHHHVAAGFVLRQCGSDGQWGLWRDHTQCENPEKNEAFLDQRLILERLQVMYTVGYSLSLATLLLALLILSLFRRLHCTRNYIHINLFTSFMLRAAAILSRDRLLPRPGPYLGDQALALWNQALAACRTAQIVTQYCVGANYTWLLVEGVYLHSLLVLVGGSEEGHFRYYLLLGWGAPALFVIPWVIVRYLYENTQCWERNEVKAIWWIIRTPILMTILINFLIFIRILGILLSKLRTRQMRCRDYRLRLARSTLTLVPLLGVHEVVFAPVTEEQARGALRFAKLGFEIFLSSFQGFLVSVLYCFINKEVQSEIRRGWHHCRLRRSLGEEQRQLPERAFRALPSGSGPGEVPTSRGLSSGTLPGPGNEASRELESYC

[4] = target: T1, hGIPR; experiment: Functional cAMP activity in the presence of 1% HSA; settings: read-out: cAMP Rel EC50, hGIPR
[5] = target: T2, hGLP-1R (Homo sapiens, UniProt P43220); experiment: Functional cAMP activation in the presence of 0.1% casein (no HSA); settings: read-out: Relative cAMP EC50, hGLP-1R;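 note: intracellular cAMP rise after 30 min at 37 °C read by HTRF, normalized between buffer only (0%) and maximal control ligand (100%), four-parameter variable-slope fit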
[6] = target: T2, hGLP-1R; experiment: Functional cAMP activity in the presence of 1% HSA; settings: read-out: cAMP Rel EC50, hGLP-1R
[7] = in the presence of 0.1% casein (no HSA), geometric mean

Chain of human GcgR (P47871 26-477): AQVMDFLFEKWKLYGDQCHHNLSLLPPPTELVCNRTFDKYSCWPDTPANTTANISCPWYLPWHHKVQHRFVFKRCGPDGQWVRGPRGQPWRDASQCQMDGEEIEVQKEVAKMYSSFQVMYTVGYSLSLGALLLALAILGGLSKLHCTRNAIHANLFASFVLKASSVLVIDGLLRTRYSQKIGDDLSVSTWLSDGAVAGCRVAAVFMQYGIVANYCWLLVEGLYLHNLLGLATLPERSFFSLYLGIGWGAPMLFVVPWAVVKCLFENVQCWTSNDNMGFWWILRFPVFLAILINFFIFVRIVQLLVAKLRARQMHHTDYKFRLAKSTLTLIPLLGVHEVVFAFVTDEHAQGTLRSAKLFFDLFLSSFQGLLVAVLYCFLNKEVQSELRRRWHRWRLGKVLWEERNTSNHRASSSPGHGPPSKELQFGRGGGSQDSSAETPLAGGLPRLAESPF
Chain of hGcgR (P47871 26-477): as above
T2 sequence (P43220 24-463): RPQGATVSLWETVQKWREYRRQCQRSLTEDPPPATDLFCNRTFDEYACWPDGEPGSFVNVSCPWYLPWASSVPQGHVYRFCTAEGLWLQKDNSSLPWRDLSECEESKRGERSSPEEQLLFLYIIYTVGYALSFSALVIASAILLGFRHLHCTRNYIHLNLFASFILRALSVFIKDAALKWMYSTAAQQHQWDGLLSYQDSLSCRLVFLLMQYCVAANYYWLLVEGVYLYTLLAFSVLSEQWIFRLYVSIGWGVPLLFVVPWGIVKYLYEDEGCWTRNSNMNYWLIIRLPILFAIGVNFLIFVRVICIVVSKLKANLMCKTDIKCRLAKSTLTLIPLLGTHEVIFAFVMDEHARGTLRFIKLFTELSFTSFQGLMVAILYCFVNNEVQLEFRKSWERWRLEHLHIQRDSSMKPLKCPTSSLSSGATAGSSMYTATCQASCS

Compound | EC50 [1] | EC50 [2] | EC50 [3] | EC50 [4] | EC50 [5] | EC50 [6] | EC50 [1, 7] | EC50 [3, 7] | EC50 [5, 7]
CC[C@H](C)[C@H](NC(=O)[C@H](CCCN)NC(=O)[C@H](CC(=O)O)NC(=O)[C@H](CC(C)C)NC(=O)[C@H](CC(C)C)NC(=O)[C@@H](NC(=O)[C@H](CO)NC(=O)[C@H](Cc1ccncc1)NC(=O)[C@H](CC(=O)O)NC(=O)[C@H](CO)NC(=O)[C@@H](NC(=O)[C@](C)(Cc1ccccc1F)NC(=O)[C@@H](NC(=O)CNC(=O)[C@H](CCC(N)=O)NC(=O)C(C)(C)NC(=O)[C@@H](N)Cc1ccc(O)cc1)[C@@H](C)O)[C@@H](C)O)[C@@H](C)CC)C(=O)N[C@@H](C)C(=O)N[C@@H](CCC(N)=O)C(=O)NC(C)(C)C(=O)N[C@@H](C)C(=O)N[C@@H](Cc1ccccc1)C(=O)N[C@H](C(=O)N[C@@H](CCCCNC(=O)COCCOCCNC(=O)CC[C@H](NC(=O)CCCCCCCCCCCCCCCCC(=O)O)C(=O)O)C(=O)N[C@@H](Cc1ccc(O)cc1)C(=O)N[C@@H](CC(C)C)C(=O)N[C@@H](CCC(=O)O)C(=O)N[C@@H](CCC(=O)O)C(=O)NCC(=O)NCC(=O)N1CCC[C@H]1C(=O)N[C@@H](CO)C(=O)N[C@@H](CO)C(=O)NCC(=O)N[C@@H](C)C(=O)N1CCC[C@H]1C(=O)N1CCC[C@H]1C(=O)N1CCC[C@H]1C(=O)N[C@@H](CO)C(N)=O)[C@@H](C)CC [Example 454] (H-Y[Aib]QGT[αMePhe(2-F)]TSD[4Pal]SILLD[Orn]IAQ[Aib]AFIK([AEEA-γGlu-C18 diacid])YLEEGGPSSGAPPPS-NH2) | 9.11 nM | 1280 nM | 0.0154 nM | 4.31 nM | 0.821 nM | 135 nM | – | – | –
H-Y[Aib]QGTFTSD[4Pal]SQ[αMeL]LDKK([dE-γGlu-C18 diacid])AQ[αMe4Pal]AFIEYLIAGGPSSGAPPPSGE-NH2 [Example 1085] | – | 1370 nM | – | 9.84 nM | – | 188 nM | 11.6 nM | 0.0827 nM | 1.28 nM
CC[C@H](C)[C@H](NC(=O)[C@H](CC(C)C)NC(=O)[C@](C)(Cc1ccc(O)cc1)NC(=O)[C@H](CCC(=O)O)NC(=O)[C@@H](NC(=O)[C@H](Cc1ccccc1)NC(=O)[C@H](CCC(N)=O)NC(=O)[C@](C)(Cc1ccncc1)NC(=O)[C@H](CCC(N)=O)NC(=O)[C@H](C)NC(=O)[C@H](CCCCNC(=O)COCCOCCNC(=O)CC[C@H](NC(=O)CCCCCCCCCCCCCCCCC(=O)O)C(=O)O)NC(=O)[C@H](CCCN)NC(=O)[C@H](CC(=O)O)NC(=O)[C@H](CC(C)C)NC(=O)[C@](C)(CC(C)C)NC(=O)[C@H](CCC(N)=O)NC(=O)[C@H](CO)NC(=O)[C@H](Cc1ccncc1)NC(=O)[C@H](CC(=O)O)NC(=O)[C@H](CO)NC(=O)[C@@H](NC(=O)[C@H](Cc1ccccc1)NC(=O)[C@@H](NC(=O)CNC(=O)[C@H](CCC(N)=O)NC(=O)C(C)(C)NC(=O)[C@@H](N)Cc1ccc(O)cc1)[C@@H](C)O)[C@@H](C)O)[C@@H](C)CC)C(=O)N[C@@H](C)C(=O)NC(C)(C)C(=O)NCC(=O)N1CCC[C@H]1C(=O)N[C@@H](CO)C(=O)N[C@@H](CO)C(=O)NCC(=O)N[C@@H](C)C(=O)N1CCC[C@H]1C(=O)N1CCC[C@H]1C(=O)N1CCC[C@H]1C(=O)N[C@@H](CO)C(=O)NCC(=O)N[C@@H](CO)C(=O)N[C@@H](CCC(=O)O)C(=O)N[C@@H](CCC(=O)O)C(N)=O [Example 1111] | – | 299 nM | – | 3.66 nM | – | 51.3 nM | 5.28 nM | 0.0356 nM | 1.14 nM
Y[Aib]QGTFTSD[4Pal]SQ[αMeL]LDKK([AEEA-γGlu-C18 diacid])AQ[αMe4Pal]AFIEYLIAGGPSSGEPPPSGS-NH2 [Example 828] | – | 481 nM | – | 14.9 nM | – | 114 nM | 3.58 nM | 0.149 nM | 1.17 nM
H-Y[Aib]QGTFTSD[4Pal]SQ[αMeL]LDKK([dE-γGlu-C18 diacid])AQ[αMe4Pal]AFIEYLIE[Aib]GPSSGAPPPSGS-NH2 [Example 920] | – | 1090 nM | – | 9.05 nM | – | 322 nM | 4.61 nM | 0.0905 nM | 2.28 nM
H-Y[Aib]QGTFTSD[4Pal]S[Orn][αMeL]LD[Orn]K([γGlu-γGlu-C18 diacid])AQ[αMe4Pal]AFIE[αMe4Pal]LIE[Aib]GPSSGEPPPSGS-NH2 [Example 991] | – | 405 nM | – | 14.8 nM | – | 315 nM | 3.03 nM | 0.119 nM | 3.91 nM
Y[Aib]QGT[αMePhe(2-F)]TSDYSILLDKK([γGlu-γGlu-C18 diacid])AQ[Aib]AFIEYLEEGGPSSGAPPPSGE-NH2 [Example 435] | 3.01 nM | 334 nM | 0.0239 nM | 10.3 nM | 0.311 nM | 33.6 nM | – | – | –
H-Y[Aib]QGTFTSDFS[Orn][αMeL]LDKK([AEEA-γGlu-C18 diacid])AQ[Aib]AFIEYLLEGGPSSGAPPPGG[4Pal]-NH2 [Example 261] | – | 520 nM | – | 38.4 nM | – | 383 nM | 5.49 nM | 0.29 nM | 3.12 nM

More lines, main results first:

EC50 [1] | EC50 [2] | EC50 [3] | EC50 [4] | EC50 [5] | EC50 [6] | Compound | EC50 [1, 7] | EC50 [3, 7] | EC50 [5, 7]
8.91 nM | 565 nM | 0.0879 nM | 6.63 nM | 1.15 nM | 139 nM | H-Y[Aib]QGT[αMePhe(2-F)]TSD[4Pal]SILLDKK([γGlu-γGlu-C18 diacid])AQ[Aib]AFIEYLEEGGPSSGEPPPSGTGE-NH2 [Example 607] | – | – | –
1.42 nM | 156 nM | 0.0105 nM | 0.865 nM | 0.258 nM | 22.9 nM | Y[Aib]QGT[αMePhe(2-F)]TSD[4Pal][αMeS]I[αMeL]LD[Orn]K([γGlu-γGlu-C18 diacid])AA[Aib]EFI[dE][αMeY]LIEGGPSSGEPPPSGGGE-NH2 [Example 748] | – | – | –
0.689 nM | 65.7 nM | 0.0323 nM | 14.1 nM | 0.273 nM | 32.5 nM | H-Y[Aib]Q[dA]T[αMePhe(2-F)]TSD[4Pal][αMeS]I[αMeL]LD[Orn]K([AEEA-γGlu-C18 diacid])AQ[αMe4Pal]EFI[dE][αMeY]LIEGGPSSGEPPPSGTGE-NH2 [Example 766] | – | – | –
– | 163 nM | – | 11.1 nM | – | 29.4 nM | CC[C@H](C)[C@H](NC(=O)[C@H](Cc1ccccc1)NC(=O)[C@H](CCCN)NC(=O)C(C)(C)NC(=O)[C@H](CCC(N)=O)NC(=O)[C@H](C)NC(=O)[C@H](CCCCNC(=O)COCCOCCNC(=O)CC[C@H](NC(=O)CCCCCCCCCCCCCCCCC(=O)O)C(=O)O)NC(=O)[C@H](CCCN)NC(=O)[C@H](CC(=O)O)NC(=O)[C@H](CC(C)C)NC(=O)[C@](C)(CC(C)C)NC(=O)[C@@H](NC(=O)[C@](C)(CO)NC(=O)[C@H](Cc1ccncc1)NC(=O)[C@H](CC(=O)O)NC(=O)[C@H](CO)NC(=O)[C@@H](NC(=O)[C@](C)(Cc1ccccc1F)NC(=O)[C@@H](NC(=O)CNC(=O)[C@H](CCC(N)=O)NC(=O)C(C)(C)NC(=O)[C@@H](N)Cc1ccc(O)cc1)[C@@H](C)O)[C@@H](C)O)[C@@H](C)CC)C(=O)N[C@H](CCC(=O)O)C(=O)N[C@@](C)(Cc1ccc(O)cc1)C(=O)N[C@@H](CC(C)C)C(=O)N[C@@H](CC(C)C)C(=O)N[C@@H](CCC(=O)O)C(=O)NCC(=O)NCC(=O)N1CCC[C@H]1C(=O)N[C@@H](CO)C(=O)N[C@@H](CO)C(=O)NCC(=O)N[C@@H](CCC(=O)O)C(=O)N1CCC[C@H]1C(=O)N1CCC[C@H]1C(=O)N1CCC[C@H]1C(=O)N[C@@H](CCC(=O)O)C(N)=O [Example 377] (H-Y[Aib]QGT[αMePhe(2-F)]TSD[4Pal][αMeS]I[αMeL]LD[Orn]K([AEEA-γGlu-C18 diacid])AQ[Aib][Orn]FI[dE][αMeY]LLEGGPSSGEPPPE-NH2) | 1.36 nM | 0.0377 nM | 0.367 nM
3.27 nM | 243 nM | 0.0746 nM | 4.23 nM | 0.603 nM | 42.7 nM | Y[Aib]QGT[αMePhe(2-F)]TSD[4Pal][αMeS]I[αMeL]LD[Orn]K([γGlu-γGlu-C18 diacid])AQ[Aib][Orn]FI[dE][αMeY]LAEGGPSSGEPPPSGTEE-NH2 [Example 571] | – | – | –
– | 217 nM | – | 0.733 nM | – | 35.5 nM | H-Y[Aib]QGT[αMePhe(2-F)]TSD[4Pal][αMeS]I[αMeL]LD[Orn]K([γGlu-γGlu-C18 diacid])AQ[αMe4Pal]EFI[dE][αMeY]LVEGGPSSGEPPPSGE-NH2 [Example 1161] | 2.19 nM | 0.00973 nM | 0.39 nM
1.35 nM | 104 nM | 0.00663 nM | 0.395 nM | 0.257 nM | 14.2 nM | H-Y[Aib]QGT[αMePhe(2-F)]TSD[4Pal]SI[αMeL]LD[Orn]K([γGlu-γGlu-C18 diacid])AQ[αMe4Pal][Orn]FI[dE][αMeY]LIEGGPSSGEPPPEEG-NH2 [Example 681] | – | – | –
